Data as given in patent US20170029355A1, “LABILE ESTERS OF AGROCHEMICALS FOR CONTROLLED RELEASE AND REDUCTION OF OFF-SITE MOVEMENT” (Monsanto Technology LLC, priority 2011, published 2017).

Legend:
[1] = Solubility of the esters (statements of the description); format: physicochemical; conditions: qualitative
[2] = Photolysis / cleavage of the esters to dicamba (statements of the description); format: physicochemical; conditions: qualitative
Text: The efficacy of the photolabile esters can be assayed in vitro, or in greenhouse or field experiments. A useful in vitro assay for post-emergent activity involves photolysis of a dilute solution of the esters using simulated sunlight. This is conveniently achieved by photolysis of a solution of the ester in an organic solvent which is miscible with water and to which some water has been added. As described in the Examples, photolysis in acetonitrile or tetrahydrofuran containing 10% water by weight is effective. Low concentrations of the ester should be used so that the entire volume is exposed to sunlight. Since the maximum extinction coefficient of the typical esters above 220 nm is in the range of 1000-10,000 M^−1 cm^−1, a concentration of 0.1 mM is effective. Photolysis in a quartz tube exposed to simulated or actual sunlight is a typical protocol.

velvetleaf [3] = test: Greenhouse post-emergent control of velvetleaf by emulsifiable concentrates (Example 30); format: in vivo
Protocol: (§1) The efficacy of some photo-labile ester formulations from Example 28 for post-emergent control of velvetleaf was tested in the greenhouse. All formulations were tested at rates of 140, 280, 420, and 560 g dicamba equivalent per hectare rates and compared to the diglycolamine salt of dicamba (CLARITY®) at the same rates and untreated control plants. The velvetleaf plants were 10-15 cm in height at the time of spraying. Percent control was evaluated three weeks after treatment.
The methodology of Example 29 was used to evaluate the efficacy of several photo-labile esters of dicamba for post-emergent control of velvetleaf as emulsifiable concentrate formulations described in Example 28.

[4] = In vitro photo-release and hydrolytic release of dicamba in an aqueous medium (Example 36); format: physicochemical; conditions: 0.01 mM (0.005 mM for diesters)
Protocol: This Example describes the determination of photo-lability and hydrolytic lability of dicamba esters in an aqueous medium. 1 mM solutions of the esters were prepared in acetonitrile (or […] solutions of dicamba diesters). The solutions were then diluted with deionized water to a concentration of 0.01 mM (or 0.005 mM for diesters). The solutions were then transferred to quartz tubes and amber bottles and held in a growth chamber by the procedure of Example 26. A 14-hour day was generally used at a constant temperature of 35° C. Hydrolytic activity was assessed by measuring the increase in dicamba concentration after day zero in the amber (dark) bottles. […] Photolysis manifested itself as increased conversion in the quartz tubes compared to the dark control.
This Example provides the results of an aqueous lability test following the protocol of Example 35 for several dicamba esters which convert to dicamba primarily by hydrolysis. As shown by the results in the table below, conversion of the dark controls generally equaled or exceeded conversion in the photolysis solutions.

broadleaf weeds = test: Control of broadleaf weeds by ester concentrates (statements of the description); format: in vivo; conditions: emulsifiable and suspension concentrates; Sesbania macrocarpa, morning glory, velvetleaf, Palmer amaranth, fat hen, sicklepod
velvetleaf [5] = test: Greenhouse post-emergent control of velvetleaf by emulsifiable concentrates (Example 37); format: in vivo; conditions: Abutilon theophrasti, post-emergence, 504 h, greenhouse, Example 37; for pest or weed control at 140 g/ha: read-out: % Control of velvetleaf, 140 g/ha; for pest or weed control at 280 g/ha: read-out: % Control of velvetleaf, 280 g/ha; for pest or weed control at 420 g/ha: read-out: % Control of velvetleaf, 420 g/ha; for pest or weed control at 560 g/ha: read-out: % Control of velvetleaf, 560 g/ha
Protocol: as §1
The methodology of Example 29 was used to evaluate the efficacy of several esters of dicamba which convert to dicamba by hydrolysis for post-emergent control of velvetleaf as emulsifiable concentrate formulations.

Euphorbia species = test: Field testing for post-emergent activity in the Southern Hemisphere (Example 39); format: in vivo; conditions: 9 as suspension concentrate, other esters as emulsifiable concentrates
Protocol: The primary weeds were Euphorbia species. Ester 9 was tested as a suspension concentrate using the formulation of Example 33 The other esters were tested as emulsifiable concentrates having the formulations shown in the table below. Akzo Nobel SPONTO EC 334 and SPONTO EC 336 along with SURFONIC CO-54 and […] (Huntsman) were used as emulsifiers and Aromatic 200 (A 200; Exxon) was used as the solvent. […] The diglycolamine salt of dicamba (CLARITYTM) was used as a comparator.

velvetleaf [6] = test: Field testing of emulsifiable concentrates, post-emergent control (Example 40); format: in vivo
Protocol: (§2) Three dicamba esters, 30a, 32a, and 36a, were formulated as emulsifiable concentrates for field testing. All surfactants are commercial materials from Stepan.
(§3) The formulations were tested in the field. Locations and timing were identical for the three esters, but differed slightly for the diglycolamine control. The esters were compared to the diglycolamine salt of dicamba (CLARITY™) for post-emergent control of three broadleaf weeds: velvetleaf, morning glory, and hemp sesbania. Rates of 280 and 560 g dicamba acid equivalent per hectare were used.

hemp sesbania = test: as above; format: in vivo
Protocol: as §2, §3

morning glory = test: as above; format: in vivo
Protocol: as §2, §3

[7] = 280 g dicamba acid equivalent per hectare
[8] = 560 g dicamba acid equivalent per hectare

Row | SMILES | solubility, in words [1] | photolysis / photo-release of dicamba, in words [2] | Conversion to Dicamba, Dark, Day 0 ([4]; amber (dark) bottle) | Conversion to Dicamba, Dark, Day 1 ([4]; amber (dark) bottle) | Conversion to Dicamba, Dark, Day 2 ([4]; amber (dark) bottle) | Conversion to Dicamba, Dark, Day 3 ([4]; amber (dark) bottle) | Conversion to Dicamba, Dark, Day 4 ([4]; amber (dark) bottle) | Conversion to Dicamba, Dark, Day 7 ([4]; amber (dark) bottle) | Conversion to Dicamba, Light, Day 0 ([4]; quartz tube) | Conversion to Dicamba, Light, Day 1 ([4]; quartz tube) | Conversion to Dicamba, Light, Day 2 ([4]; quartz tube) | Conversion to Dicamba, Light, Day 3 ([4]; quartz tube) | Conversion to Dicamba, Light, Day 4 ([4]; quartz tube) | Conversion to Dicamba, Light, Day 7 ([4]; quartz tube) | other results
1 | COc1cc(COC(=O)c2c(Cl)ccc(Cl)c2OC)c([N+](=O)[O-])cc1OC [Ester 1b, 6-nitroveratryl ester of dicamba] | significantly less soluble than 1a |  |  |  |  |  |  |  |  |  |  |  |  |  | 
2 | COc1c(Cl)ccc(Cl)c1C(=O)OCc1cccc([N+](=O)[O-])c1 [Ester 1c, 3-nitrobenzyl ester of dicamba] |  | slower and less efficient photolysis than the 2-nitrobenzyl ester |  |  |  |  |  |  |  |  |  |  |  |  | 
3 | COc1c(Cl)ccc(Cl)c1C(=O)OCCOc1ccccc1[N+](=O)[O-] [Ester 3] |  | the rate of photolysis decreases |  |  |  |  |  |  |  |  |  |  |  |  | % Control of velvetleaf, 140 g/ha (velvetleaf [3]): 36%; % Control of velvetleaf, 280 g/ha (velvetleaf [3]): 57%; % Control of velvetleaf, 420 g/ha (velvetleaf [3]): 40%; % Control of velvetleaf, 560 g/ha (velvetleaf [3]): 43%
4 | COc1c(Cl)ccc(Cl)c1C(=O)OCCOCc1ccccc1[N+](=O)[O-] [Ester 4, 2-(2-Nitrobenzoxy)Ethanol Ester of Dicamba] |  | the rate of photolysis decreases |  |  |  |  |  |  |  |  |  |  |  |  | % Control of velvetleaf, 140 g/ha (velvetleaf [3]): 32%; % Control of velvetleaf, 280 g/ha (velvetleaf [3]): 52%; % Control of velvetleaf, 420 g/ha (velvetleaf [3]): 50%; % Control of velvetleaf, 560 g/ha (velvetleaf [3]): 51%
5 | COc1c(Cl)ccc(Cl)c1C(=O)Oc1ccc(OC(=O)c2c(Cl)ccc(Cl)c2OC)nn1 [Ester 17, Maleic Hydrazide Diester of Dicamba] | readily soluble in organic solvents |  | 6% | 16% | 26% | 35% | 41% | 49% | 6% | 18% | 26% | 33% | 36% | 42% | Conversion to Dicamba, Dark, Day 14 ([4]; amber (dark) bottle): 60%; Conversion to Dicamba, Light, Day 14 ([4]; quartz tube): 53%; control of a number of broadleaf weeds in field testing, in words (broadleaf weeds): proven effective; cleavage to form dicamba, in words [2]: undergo efficient cleavage to form dicamba; pest or weed control at 140 g/ha (velvetleaf [5]): 23.3%; pest or weed control at 280 g/ha (velvetleaf [5]): 41.7%; pest or weed control at 420 g/ha (velvetleaf [5]): 75%; pest or weed control at 560 g/ha (velvetleaf [5]): 73.3%; % control, 0.25 lb/ac (0.28 kg/hectare) (Euphorbia species; 0.25 lb dicamba a.e. per acre): 41%; % control, 0.50 lb/ac (0.56 kg/hectare) (Euphorbia species; 0.50 lb dicamba a.e. per acre): 53%
6 | COc1c(Cl)ccc(Cl)c1C(=O)Oc1nnc(OC(=O)c2c(Cl)ccc(Cl)c2OC)c2ccccc12 [Ester 18, Phthalhydrazide Diester of Dicamba] | highly insoluble |  |  |  |  |  |  |  |  |  |  |  |  |  | cleavage to form dicamba, in words [2]: undergo efficient cleavage to form dicamba
7 | COc1c(Cl)ccc(Cl)c1C(=O)Oc1c(C)cc(C)cc1C(C)(C)C [Ester 21] |  | undergo photo-release of dicamba in vitro |  |  |  |  |  |  |  |  |  |  |  |  | 
8 | COc1c(Cl)ccc(Cl)c1C(=O)Oc1ccc(=O)n(CCC#N)n1 [Ester 34a] | insoluble solid |  | 3% | 9% | 14% | 18% | 23% | 38% | 3% | 10% | 14% | 16% | 20% | 29% | Conversion to Dicamba, Dark, Day 14 ([4]; amber (dark) bottle): 56%; Conversion to Dicamba, Dark, Day 21 ([4]; amber (dark) bottle): 71%; Conversion to Dicamba, Dark, Day 28 ([4]; amber (dark) bottle, Day 28): 87%; Conversion to Dicamba, Light, Day 14 ([4]; quartz tube): 48%; Conversion to Dicamba, Light, Day 21 ([4]; quartz tube): 60%; Conversion to Dicamba, Light, Day 28 ([4]; quartz tube, Day 28): 71%
9 | COc1c(Cl)ccc(Cl)c1C(=O)Oc1nc(C(C)(C)C)cc(C(C)(C)C)c1C#N [Ester 36a] |  |  | 20% | 59% | 61% | 60% | 60% | 65% | 20% | 57% | 60% | 58% | 59% | 63% | Conversion to Dicamba, Dark, Day 21 ([4]; amber (dark) bottle): 66%; Conversion to Dicamba, Light, Day 21 ([4]; quartz tube): 65%; control of a number of broadleaf weeds in field testing, in words (broadleaf weeds): proven effective; % control 19 days after treatment, 280 g/ha, Velvetleaf (velvetleaf [6]; [7]): 72 ± 25%; % control 19 days after treatment, 560 g/ha, Velvetleaf (velvetleaf [6]; [8]): 84 ± 26%; % control 19 days after treatment, 280 g/ha, Hemp sesbania (hemp sesbania; [7]): 82 ± 10%; % control 19 days after treatment, 560 g/ha, Hemp sesbania (hemp sesbania; [8]): 98 ± 2%; % control 19 days after treatment, 280 g/ha, Morning glory (morning glory; [7]): 83 ± 4%; % control 19 days after treatment, 560 g/ha, Morning glory (morning glory; [8]): 93 ± 5%; pest or weed control at 140 g/ha (velvetleaf [5]): 15.8%; pest or weed control at 280 g/ha (velvetleaf [5]): 26.7%; pest or weed control at 420 g/ha (velvetleaf [5]): 32.5%; pest or weed control at 560 g/ha (velvetleaf [5]): 66.7%
